The test system of test [1] is pAkt308 (phosphorylation of Akt at T308) in PC-3 cells. The test is described as follows: pAkt T308 ECL Assay in PC-3 cells. It counts as cell-based. As to conditions: Homo sapiens, 6 h, six hours with compound, read-out: PAKT308 PC3 IC50. As to the method:
VI. The pAkt^T308 ECL Assay Protocol
On Day 1, PC-3 cells were seeded at 15,000 cells/well in 100 μL/well ([…]) growth media into black-walled, clear bottom, poly-L-lysine coated plates. The cells were incubated overnight in a 37° C., 5% CO2 incubator.
On Day 2, a MSD ECL plate was blocked for two hours with 150 μL per well of 3% MSD blocker A.
Test compounds were diluted to 500× in DMSO and then were subjected to further serial dilution using a BioMek 2000 instrument. DMSO diluted compounds were then diluted into growth media and then added to the cell plates.
The cell plates incubated with compounds for six hours in a 37° C., 5% CO2 incubator after which the growth medium was removed and 55 μl of MSD lysis buffer was added to cell plates on ice. The plates were lysed on ice for five minutes followed by 15 minutes of vigorous shaking on a plate shaker at 4° C. The blocked MSD assay plates were washed twice with 1×MSD wash buffer followed by the addition of cell lysate as follows: 30 μl of cell lysate was added to the pAkt308 plates and 13 μl of lysate+12 μl lysis buffer was added to the tAkt plates. The plates were then sealed and shaken at 4° C. overnight.
On Day 3, the MSD plates were washed four times with 1×MSD wash buffer then, 25 μl/well of MSD SULFO-TAG antibodies diluted to 10 nM final concentration in 1% blocker. A buffer was added to the antibody diluent which was added to assay plates. The plates were then sealed and incubated at RT for 1.5 hour. The plates were then washed twice with 1×MSD wash buffer followed by the addition of 150 μl/well of 1.5×MSD read buffer. The plates were read immediately after the addition of read buffer using a Trilux instrument. […]

Test [2] deals with PC-3 cells. Put plainly: Cell Proliferation Assay (Cell Titer Glo), PC-3 cell line. In kind it is cell-based. As to conditions: Homo sapiens, PC-3, 72 h, PC-3 cells, 3 days incubation; read-out: CP EC50 PC3. In short, it runs like this:
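PC-3 cells, 1000 cells/well, left to adhere 3-5 h, then exposed for 3 days at 37° C to compounds as 1:3 serial dilutions from 500× DMSO stocks diluted in growth medium. Medium then replaced with fresh medium and viability read by Cell Titer Glo luminescence.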
A general note: Cellular ATP, detected with luciferase, serves as a proxy for viable cell number.

Test [3] deals with T1, PDK1 kinase (Homo sapiens, UniProt O15530).
T1 sequence (O15530 1-556): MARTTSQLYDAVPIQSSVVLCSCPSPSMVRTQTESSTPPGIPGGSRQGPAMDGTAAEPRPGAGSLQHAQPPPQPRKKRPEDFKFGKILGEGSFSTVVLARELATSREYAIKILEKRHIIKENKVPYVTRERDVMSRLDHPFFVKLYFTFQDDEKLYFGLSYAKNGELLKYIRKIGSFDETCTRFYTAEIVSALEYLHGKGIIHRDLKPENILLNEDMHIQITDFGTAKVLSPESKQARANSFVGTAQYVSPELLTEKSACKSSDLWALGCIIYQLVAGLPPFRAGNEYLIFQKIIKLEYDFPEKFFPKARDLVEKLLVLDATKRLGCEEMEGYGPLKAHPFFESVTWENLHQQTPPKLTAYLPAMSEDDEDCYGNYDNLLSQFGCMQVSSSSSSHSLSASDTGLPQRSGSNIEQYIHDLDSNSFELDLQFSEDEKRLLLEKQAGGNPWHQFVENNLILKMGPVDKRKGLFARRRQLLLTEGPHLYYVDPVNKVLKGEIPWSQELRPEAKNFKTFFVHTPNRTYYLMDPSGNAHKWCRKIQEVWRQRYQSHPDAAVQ
Put plainly: PDK1 Kinase Alpha Screen Assay. The following applies: read-out: PDK1 IC50. It counts as biochemical. In short, it runs like this:
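Compound in DMSO added to PDK1-4 peptide; PDK1/ATP mix starts reaction (final 50 nM peptide, 10 uM ATP). Runs 3-18 hours, stopped with 90 mM EDTA buffer. Antibody/bead mix added, developed overnight at room temperature, then AlphaScreen signal read.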

For test [4], the system named is A2780 cells. The test is described as follows: Cell Proliferation Assay (Cell Titer Glo), A2780. As to conditions: Homo sapiens, 72 h; A2780 cells, 3 days incubation; read-out: CPEC50 A2780. It counts as cell-based. The gist of the method:
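Cells seeded at 1000/well, allowed to adhere 3-5 h, then exposed to DMSO-dissolved compounds for 3 days at 37° C., 5% CO2. Medium replaced before Cell Titer Glo addition; luminescence read after 10 min.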

Results on 20 molecules are retold here after patent publication US7932262B2 (Novartis AG, priority 2006, dated 2011).

Each structure is given as a SMILES string.

By IC50 is commonly meant the concentration that inhibits the measured activity by half.

Regarding `NS(=O)(=O)c1ccc(Nc2ncc3cc(Br)cc(OC4CCNCC4)c3n2)cc1` [Compound 1, 4-[6-Bromo-8-(piperidin-4-yloxy)-quinazolin-2-ylamino]-benzenesulfonamide], the IC50 in test [1] was 5 to 10 µM; in test [3], below 5 µM. Moreover, the EC50 in test [2] and in test [4] was below 5 µM throughout.

For `NS(=O)(=O)c1ccc(Nc2ncc3cc(Br)cc(OC4CN5CCC4CC5)c3n2)cc1` (stereo not shown) [Compound 2, 4-[8-(1-Aza-bicyclo[2.2.2]oct-3-yloxy)-6-bromo-quinazolin-2-yl-amino]-benzenesulfonamide], the IC50 in test [1] and in test [3] was below 5 µM each time. Moreover, the EC50 in test [2] and in test [4] was below 5 µM in each case.

With `O=S(=O)(c1ccc(Nc2ncc3cccc(OC4CCNCC4)c3n2)cc1)N1CCOCC1` [Compound 3, [4-(Morpholine-4-sulfonyl)-phenyl]-[8-(piperidin-4-yloxy)-quinazolin-2-yl]-amine], the IC50 in test [1] and in test [3] was below 5 µM in each case. Besides, the EC50 in test [2] and in test [4] was below 5 µM throughout.

On to `CC(C)N1CCC(Oc2cccc3cnc(Nc4ccc(S(=O)(=O)N5CCOCC5)cc4)nc23)CC1` [Compound 4, [8-(1-Isopropyl-piperidin-4-yloxy)-quinazolin-2-yl]-[4-(morpholine-4-sulfonyl)-phenyl]-amine], for which the 50% inhibitory concentration (IC50) in test [1] and in test [3] was below 5 µM in each case. Further, the EC50 in test [2] and in test [4] was below 5 µM throughout.

In the case of `CC(C)NS(=O)(=O)c1ccc(Nc2ncc3cccc(OC4CCNCC4)c3n2)cc1` [Compound 11, N-Isopropyl-4-[8-(piperidin-4-yloxy)-quinazolin-2-ylamino]-benzenesulfonamide], the concentration for half-maximal inhibition (IC50) in test [1] and in test [3] was below 5 µM in each case. In addition, the EC50 in test [2] and in test [4] was below 5 µM each time.

Take `COCCNS(=O)(=O)c1ccc(Nc2ncc3cccc(OC4CCNCC4)c3n2)cc1` [Compound 12, N-(2-Methoxy-ethyl)-4-[8-(piperidin-4-yloxy)-quinazolin-2-ylamino]-benzenesulfonamide]: the IC50 in test [1] and in test [3] was below 5 µM in each case. In addition, the EC50 in test [2] and in test [4] was below 5 µM throughout.

In the case of `O=S(=O)(NC1CC1)c1ccc(Nc2ncc3cccc(OC4CCNCC4)c3n2)cc1` [Compound 13, N-Cyclopropyl-4-[8-(piperidin-4-yloxy)-quinazolin-2-ylamino]-benzenesulfonamide], the IC50 in test [1] and in test [3] was below 5 µM each time. Moreover, the EC50 in test [2] and in test [4] was below 5 µM each time.

As to `O=S(=O)(NCCN1CCCC1)c1ccc(Nc2ncc3cccc(OC4CCNCC4)c3n2)cc1` [Compound 14, 4-[8-(Piperidin-4-yl-oxy)-quinazolin-2-ylamino]-N-(2-pyrrolidin-1-yl-ethyl)-benzenesulfonamide], the IC50 in test [1] is 5 to 10 µM; in test [3], below 5 µM. Further, the EC50 in test [2] and in test [4] was below 5 µM in each case.

Consider `NS(=O)(=O)c1ccc(Nc2ncc3cccc(OC4CCNCC4)c3n2)cc1` [Compound 31, 4-[8-(Piperidin-4-yloxy)-quinazolin-2-ylamino]-benzenesulfonamide], for which the IC50 in test [1] and in test [3] was below 5 µM throughout. Besides, the EC50 in test [2] and in test [4] was below 5 µM in each case.

Regarding `CC(C)N1CCC(Oc2cccc3cnc(Nc4ccc(S(N)(=O)=O)cc4)nc23)CC1` [Compound 36, 4-[8-(1-Isopropyl-piperidin-4-yloxy)-quinazolin-2-ylamino]-benzenesulfonamide], the half-maximal inhibitory concentration (IC50) in test [1] and in test [3] was below 5 µM in each case. For the same molecule, the EC50 in test [2] and in test [4] was below 5 µM throughout.

As to `NS(=O)(=O)c1ccc(Nc2ncc3cccc(O[C@@H]4CN5CCC4CC5)c3n2)cc1` [Compound 40, 4-[8-((S)-3-quinuclidinyloxy)-quinazolin-2-ylamino]-benzenesulfonamide], the IC50 in test [1] and in test [3] was below 5 µM throughout. In addition, the EC50 in test [2] and in test [4] was below 5 µM in each case.

Take `CN1C2CCC1CC(Oc1cccc3cnc(Nc4ccc(S(N)(=O)=O)cc4)nc13)C2` (stereo not shown) [Compound 41, 4-[8-(8-Methyl-8-aza-bicyclo[3.2.1]oct-3-yloxy)-quinazolin-2-ylamino]-benzenesulfonamide]: the IC50 in test [1] and in test [3] was below 5 µM in each case. Besides, the EC50 in test [2] and in test [4] was below 5 µM throughout.

For the molecule `CC(C)N1CCC(Oc2ccc3cnc(Nc4ccc(S(N)(=O)=O)cc4)nc3c2)CC1` [Compound 42, 4-[7-(l-Isopropyl-piperidin-4-yloxy)-quinazolin-2-ylamino]-benzenesulfonamide], the IC50 in test [1] and in test [3] was below 5 µM each time. The EC50 in test [2] and in test [4] was below 5 µM throughout.

Regarding `CC(C)NC(=O)c1ccc(Nc2ncc3cccc(OC4CCN(C(C)C)CC4)c3n2)cc1` [Compound 44, N-Isopropyl-4-[8-(1-isopropyl-piperidin-4-yloxy)-quinazolin-2-ylamino]-benzamide], the IC50 in test [1] and in test [3] was below 5 µM in each case. Moreover, the EC50 in test [2] and in test [4] was below 5 µM each time.

For the molecule `CC(C)CN1CCC(Oc2cccc3cnc(Nc4ccc(S(N)(=O)=O)cc4)nc23)CC1` [Compound 45, 4-[8-(1-Isobutyl-piperidin-4-yloxy)-quinazolin-2-ylamino]-benzenesulfonamide], the IC50 in test [1] and in test [3] was below 5 µM in each case. The EC50 in test [2] and in test [4] was below 5 µM in each case.

Turning to `NS(=O)(=O)c1ccc(Nc2ncc3ccc(OC4CCNCC4)cc3n2)cc1` [Compound 51, 4-[7-(Piperidin-4-yloxy)-quinazolin-2-ylamino]-benzenesulfonamide], the 50% inhibitory concentration (IC50) in test [1] and in test [3] was below 5 µM in each case. In addition, the EC50 in test [2] and in test [4] was below 5 µM throughout.

In the case of `CC(C)Cn1cc(-c2ccc3cnc(Nc4ccc(S(N)(=O)=O)cc4)nc3c2OC2CCNCC2)cn1` [Compound 65], the IC50 was 5 to 10 µM in test [1] and below 5 µM in test [3]. Besides, in test [4], the EC50 is below 5 µM.

`NS(=O)(=O)c1ccc(Nc2ncc3ccc(-c4cnccn4)c(OC4CCNCC4)c3n2)cc1` [Compound 66, 4-[8-(Piperidin-4-yloxy)-7-pyrazin-2-yl-quinazolin-2-ylamino]-benzenesulfonamide]: the IC50 in test [1] is 5 to 10 µM; in test [3] it was below 5 µM. Also, in test [4], the EC50 was below 5 µM.

With `NS(=O)(=O)c1ccc(Nc2ncc3ccc(-c4cccnc4)cc3n2)cc1` [Compound 133, 4-(7-Pyridin-3-yl-quinazolin-2-ylamino)-benzenesulfonamide], the IC50 in test [1] and in test [3] was below 5 µM in each case. In addition, the EC50 in test [4] is below 5 µM.

Take `COc1cncc(-c2ccc3cnc(Nc4ccc(S(N)(=O)=O)cc4)nc3c2)c1` [Compound 138, 4-[7-(5-Methoxy-pyridin-3-yl)-quinazolin-2-ylamino]-benzenesulfonamide]: the half-maximal inhibitory concentration (IC50) was 5 to 10 µM in test [1] and below 5 µM in test [3]. Moreover, the EC50 in test [4] was below 5 µM.
